What is called Kd is the constant that tells how readily two partners part at equilibrium.

Each structure is given as a SMILES string.

In one assay the test system is neurofibrillary tangles. In words: Staining test on brain section of Alzheimer's disease patients. Format: binding, human. Conditions: 100 μM solution in 50% ethanol, 10 minutes, fluorescence microscope.
Assay [1] deals with neurofibrillary tangles (tau protein). In words: Autoradiography experiments using [^18F] THK-5105, [^18F] THK-5117 and [^18F] THK-5125. Conditions: hippocampus section and adjacent sections, higher magnification images. Type of assay: binding, human. As to the method: Paraffin-embedded sections of the brain from an Alzheimer's disease patient were deparaffinized, and then immersed in PBS for 10 minutes. Approximately 400 μCi/ml of each of [^18F] THK-5105, [^18F] THK-5117, and [^18F] THK-5125 was added dropwise to deparaffinized sections and allowed to react for 10 minutes at room temperature. After that, the sections were immersed in distilled water for 2 minutes, shaken lightly in 50% EtOH for 2 minutes, immersed again in distilled water for 2 minutes, and dried in a paraffin stretching device. The section was left overnight in contact with an imaging plate. Next day, the image was read with a BAS 5000 (Fujifilm Corporation). In addition, adjacent sections were immunostained with anti-phosphorylated tau antibody (AT8).

The target in a further assay is K18-ΔK280 aggregates (Homo sapiens (Human), UniProt P10636, DEL597-597). Briefly: Saturation binding test of THK-5105. The note with it: [^18F] THK-5105 0.1 to 100 nM, K18-ΔK280 aggregates 200 nM, room temperature, one hour; read-out: dissociation constant Kd. As to the method: Regarding the binding of tau imaging probes to tau protein aggregates, a binding test was carried out and evaluated using a K18-ΔK280 construct which contained a 4-repeat structure involved in the formation of beta-sheet structures in the htau40 protein. For K18-ΔK280 (Martin von Bergen et al., THE JOURNAL OF BIOLOGICAL CHEMISTRY (2001), vol. 276, pp. 48165-48174; M. Goedert et al., NEURON (1989), vol. 3, pp. 519-526), an artificial gene fragment which was prepared based on its amino acid sequence was cloned into a pET-3a vector, the resulting plasmid was used to transform Escherichia coli BL21 (DE3) competent cells for protein expression, and the recombinant Escherichia coli cell was cultured to express K18-ΔK280. […]
Sequence of K18-ΔK280 aggregates (P10636 other isoform, or with tags, fused parts or gaps del 597-597): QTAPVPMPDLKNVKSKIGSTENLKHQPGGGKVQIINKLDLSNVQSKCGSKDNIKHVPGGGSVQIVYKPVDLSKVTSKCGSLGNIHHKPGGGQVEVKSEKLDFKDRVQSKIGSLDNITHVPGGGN
K18-ΔK280 aggregates were made by preparing 20 μM PBS (pH 7.4) and incubating the K18-ΔK280 in the PBS at 37° C. for 4 days. The state where beta-sheet structures in K18-ΔK280 aggregates were formed was ascertained by thioflavin S fluorescence binding test. […]
In the binding test of [^18F] […] THK-5105 to K18-ΔK280 aggregates was calculated from the radioactivity of the filter which was measured on a gamma counter (AccuFLEX γ7000, Aloka). Non-specific binding was determined by adding unlabeled THK-5105 (at a final concentration of 2 μM) to the reaction system and performing experiments in a similar way.

Assay [2] concerns neurofibrillary tangles (tau protein). In words: Autoradiography test with [^18F] BF-227 and [^18F] THK-5035 on brain section of Alzheimer's disease patients. Type of assay: binding, human. The note with it: approximately 400 μCi/ml, 10 minutes. As to the method: After the paraffin-embedded brain section of Alzheimer's disease patients was deparaffinized, it was immersed in PBS for 10 minutes. Approximately 400 μCi/ml of [^18F] BF-227 and [^18F] THK-5035 were dropped on the section to react for 10 minutes at room temperature. It was immersed in distilled water for 2 minutes, shaken in 50% EtOH lightly for 2 minutes, immersed again in distilled water for 2 minutes, and dried in a paraffin extension device. The section was contacted on an imaging plate and settled overnight, and the next day, the images were read with a BAS5000 (Fujifilm Corporation). Furthermore, the serial section was immunostained with thioflavine-S staining and anti-tau antibody (AT8).

As for `CN(C)c1ccc(-c2ccc3cc(OCC(O)CF)ccc3n2)cc1` (stereo not shown) [THK-5105, 6-[(3-fluoro-2-hydroxy)propoxy]-2-(4-dimethylaminophenyl)quinoline], in the assay on neurofibrillary tangles, the “binding to neurofibrillary tangles in the brain section of Alzheimer's disease patients (staining test)” value was “bind to neurofibrillary tangles specifically and selectively”. In assay [1], the “correspondence of autoradiography / unlabeled staining image with anti-phosphorylated tau antibody (AT8) immunostaining” value is given as “corresponded well with the image of immunostaining with the anti-phosphorylated tau antibody”. In addition, on K18-ΔK280 aggregates, the dissociation constant Kd is 3.9 nM.
With `CN(C)c1ncc(C=Cc2nc3ccc(OCCF)cc3o2)s1` [[^18F] BF-227], the “accumulation in the region where [^18F] THK-5035 was accumulated (anti-tau antibody positive region), autoradiography” value in assay [2] is “no accumulation”.

For the origin of these results see patent publication US9452985B2, “Tau imaging probe” (GE Healthcare Limited, priority 2010, dated 2016).
